Patent US20250346587A1, “NITROGEN-CONTAINING FIVE-MEMBERED HETEROCYCLIC DERIVATIVES AS CHECKPOINT KINASE 1 INHIBITOR AND USES THEREOF” (SPEROGENIX THERAPEUTICS LIMITED, priority 2022, published 2025)
In brackets after ≈: the same amount, converted by molar mass.

What was measured:
[1] = Kinetic solubility assay (nephelometry); settings: PBS, 37 °C, pH 7.4, aqueous buffer, kinetic from dmso stock
Experimental: Test articles were serially diluted in DMSO from concentration range of 10 mM to 0.078 mM in 96 well v-bottom dilution plate (#3363, Corning). 1 μL of test article from each well was transferred to 96 well flat bottom clear plates (#655101, Greiner) containing 99 μL of PBS at pH-7.4, which makes the test drug final concentration range from 100 μM to 0.78 μM. Samples were incubated for 1 hour at 37° C. followed by measurement of light scattering at 625 nm with a laser based micro plate Nephelometer (Nephlostar Plus, BMG Labtech). Solubility concentration (μM) was then calculated by segmental regression with Neplometer as Readout.

[2] = Microsomal stability assay, rat liver microsome; format: in vitro ADME; settings: liver microsomes, pH 7.4, 0.2 mg/mL, 1 μM compound, 37° C., read-out: Clint RLM
Experimental: (§1) Incubation mixture contained 0.2 mg/mL microsomes, 1 mmol NADPH, and test compound at 1 μM in 100 mmol potassium phosphate buffer at pH 7.4. The mixtures were incubated at 37° C. for 5, 15, and 30 minutes. Aliquots of the mixtures were taken at 0, 5, 15 and 30 minutes and quenched with chilled Acetonitrile:Methanol (50:50) containing internal standard. Following completion of incubation, samples were centrifuged at 4,000 rpm at 4° C. The supernatant was analyzed by LC-MS/MS and half-life, as well as intrinsic clearance (Clint), were calculated.

[3] = Microsomal stability assay, mouse liver microsome; format: in vitro ADME; settings: liver microsomes, pH 7.4, 0.2 mg/mL, 1 μM compound, 37° C., read-out: Clint MLM
Experimental: as §1

[4] = Microsomal stability assay, human liver microsome; format: in vitro ADME; settings: liver microsomes, pH 7.4, 0.2 mg/mL, 1 μM compound, 37° C., read-out: Clint HLM
Experimental: as §1

CHK-1 kinase = CHK-1 kinase (Homo sapiens (Human), UniProt O14757); assay: CHK-1 % inhibition kinase assay (TR-FRET); format: biochemical; settings: ATP 15 μM; for inhibition at 0.03 µM / inhibition at 0.3 µM: CHK1 enzyme; for inhibition at 0.03 µM: compound 30 nM; for inhibition at 0.3 µM: compound 300 nM; for IC50: TR-FRET, read-out: CHK1 IC50
Chain of CHK-1 kinase (O14757 whole entry): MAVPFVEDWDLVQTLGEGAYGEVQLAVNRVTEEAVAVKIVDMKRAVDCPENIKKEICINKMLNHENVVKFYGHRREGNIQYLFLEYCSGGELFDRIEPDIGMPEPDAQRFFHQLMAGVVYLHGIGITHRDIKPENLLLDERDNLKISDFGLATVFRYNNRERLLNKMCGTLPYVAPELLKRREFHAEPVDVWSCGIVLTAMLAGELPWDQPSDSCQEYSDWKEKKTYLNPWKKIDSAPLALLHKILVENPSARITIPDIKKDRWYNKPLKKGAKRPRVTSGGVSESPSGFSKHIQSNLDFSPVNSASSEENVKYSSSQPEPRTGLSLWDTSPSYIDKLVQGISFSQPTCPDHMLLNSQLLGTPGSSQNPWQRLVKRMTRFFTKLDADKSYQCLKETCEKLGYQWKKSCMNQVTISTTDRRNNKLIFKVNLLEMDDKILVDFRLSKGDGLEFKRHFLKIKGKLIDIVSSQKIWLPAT
Experimental: Inhibition of CHK-1 kinase or percent inhibition at defined concentrations was determined by TR-FRET assay. Kinase reactions were performed in a 20 μL volume in low-volume 384-well plates (Cat #Corning 4511). The concentration of substrate Fluorescein-CREBtide was maintained at 0.2 μM in the assay, and the kinase reaction buffer consisted of 50 mM HEPES pH 7.5, 0.01% BRIJ-35, 10 mM MgCl2, 1 mM EGTA. Serially diluted compounds (3-fold) in DMSO (0.5% in final reaction) were incubated with cocktail of CHK-1 kinase (6 nM; Cat #PR3959B, ThermoFisher), Fluorescein-CREBtide (0.2 μM; Cat #PV3508, ThermoFisher), ATP (15 μM; Cat #A1852, Sigma), and kinase reaction buffer. After 1 hour kinase reactions at room temperature, 10 μL of Detection mix (8 nM LanthaScreen® Tb-CREB [pSer133] antibody, Cat #PV3542, ThermoFisher with 20 mM EDTA in TR-FRET Buffer, Cat #PV3574, ThermoFisher) was added, and the plate was read with a plate reader (Synergy™ NEO; Biotek) for TR-FRET.
The resulting TR-FRET emission ratio was used to calculate the percent inhibition by normalizing to the control using the following formula: […]

| solubility kinetic at 1 h [1] | microsomal CLint at 1 μM [2] | microsomal CLint at 1 μM [3] | microsomal CLint at 1 μM [4] | inhibition at 0.03 µM (CHK-1 kinase) | inhibition at 0.3 µM (CHK-1 kinase) | Structure (SMILES) | IC50 (CHK-1 kinase) |
| --- | --- | --- | --- | --- | --- | --- | --- |
| 38.2 µM (≈ 14.9 µg/mL) | 138 µL/min/mg | 141 µL/min/mg | 117 µL/min/mg | 9% | 75% | CN1CCCC(COc2ccccc2-c2cc(Nc3cnc(C#N)cn3)no2)C1 (stereo not shown) [Compound 1.16, 5-(5-(2-((1-methylpiperidin-3-yl)methoxy)phenyl)isoxazol-3-ylamino) pyrazine-2-carbonitrile] | – |
| 39.6 µM (≈ 13.8 µg/mL) | 23 µL/min/mg | 56 µL/min/mg | 34 µL/min/mg | 37% | 60% | N#Cc1cnc(Nc2cc(-c3ccccc3OC3CCNC3)on2)cn1 (stereo not shown) [Compound 1.14, 5-(5-(2-(pyrrolidin-3-yloxy)phenyl)isoxazol-3-ylamino) pyrazine-2-carbonitrile] | – |
| 11.9 µM (≈ 4.48 µg/mL) | 84 µL/min/mg | 221 µL/min/mg | 86 µL/min/mg | 15% | 32% | CC(C)N1CC(Oc2ccccc2-c2cc(Nc3cnc(C#N)cn3)no2)C1 [Compound 1.13, 5-(5-(2-(1-isopropylazetidin-3-yloxy)phenyl)isoxazol-3-ylamino) pyrazine-2-carbonitrile] | – |
| 100 µM (≈ 37.6 µg/mL) | 33 µL/min/mg | 25 µL/min/mg | 12 µL/min/mg | 39% | 79% | N#Cc1cnc(Nc2cc(-c3ccccc3O[C@H]3CC[C@@H](N)CC3)on2)cn1 [Compound 1.15, 5-(5-(2-((1s,4s)-4-aminocyclohexyloxy)phenyl)isoxazol-3-ylamino) pyrazine-2-carbonitrile] | – |
| 39.2 µM (≈ 12.6 µg/mL) | 118 µL/min/mg | 114 µL/min/mg | 75 µL/min/mg | 36% | 82% | N#Cc1cnc(Nc2cc(-c3ccccc3OCCN)on2)cn1 [Compound 1.7, 5-(5-(2-(2-aminoethoxy)phenyl)isoxazol-3-ylamino) pyrazine-2-carbonitrile] | – |
| 14 µM (≈ 4.11 µg/mL) | 79 µL/min/mg | 382 µL/min/mg | 140 µL/min/mg | 12% | 36% | COc1ccccc1-c1cc(Nc2cnc(C#N)cn2)no1 [Compound 1.11, 5-(5-(2-methoxyphenyl)isoxazol-3-ylamino) pyrazine-2-carbonitrile] | – |
| 46.6 µM (≈ 16.9 µg/mL) | 50 µL/min/mg | 52 µL/min/mg | 37 µL/min/mg | 82% | 99% | N#Cc1cnc(Nc2cc(-c3ccccc3OCC3CCNC3)on2)cn1 (stereo not shown) [Compound 1.23, 5-(5-(2-(pyrrolidin-3-ylmethoxy)phenyl)isoxazol-3-ylamino) pyrazine-2-carbonitrile] | – |
| 48 µM (≈ 16.7 µg/mL) | 43 µL/min/mg | 50 µL/min/mg | 26 µL/min/mg | 69% | 95% | N#Cc1cnc(Nc2cc(-c3ccccc3OCC3CNC3)on2)cn1 [Compound 1.17, 5-(5-(2-(azetidin-3-ylmethoxy)phenyl)isoxazol-3-ylamino) pyrazine-2-carbonitrile] | – |
| 38.4 µM (≈ 16.1 µg/mL) | 266 µL/min/mg | 473 µL/min/mg | 478 µL/min/mg | 21% | 30% | CC(C)CC(C)N1CC(Oc2ccccc2-c2cc(Nc3cnc(C#N)cn3)no2)C1 (stereo not shown) [Compound 1.12, 5-(5-(2-(1-(4-methylpentan-2-yl)azetidin-3-yloxy)phenyl)isoxazol-3-ylamino) pyrazine-2-carbonitrile] | – |
| 48 µM (≈ 18.7 µg/mL) | 130 µL/min/mg | 297 µL/min/mg | 145 µL/min/mg | 4% | 28% | CCC(C)N1CC(Oc2ccccc2-c2cc(Nc3cnc(C#N)cn3)no2)C1 (stereo not shown) [Compound 1.18, 5-(5-(2-(1-sec-butyl-azetidin-3-yloxy)phen-yl)isoxazol-3-ylamino)-pyrazine-2-carbonitrile] | – |

| Structure (SMILES) | solubility kinetic at 1 h [1] | microsomal CLint at 1 μM [2] | microsomal CLint at 1 μM [3] | microsomal CLint at 1 μM [4] | inhibition at 0.03 µM (CHK-1 kinase) | inhibition at 0.3 µM (CHK-1 kinase) | IC50 (CHK-1 kinase) |
| --- | --- | --- | --- | --- | --- | --- | --- |
| N#Cc1cnc(Nc2cc(-c3ccccc3OC3CNC3)on2)cn1 [Compound 1.4, 5-(5-(2-(azetidin-3-yloxy)phenyl)isoxazol-3-ylamino) pyrazine-2-carbonitrile] | 100 µM (≈ 33.4 µg/mL) | 27 µL/min/mg | 66 µL/min/mg | 52 µL/min/mg | 7% | 54% | 86.4 nM |
| CN1CCOC(COc2ccccc2-c2cc(Nc3cnc(C#N)cn3)no2)C1 (stereo not shown) [Compound 1.8, 5-(5-(2-((4-methylmorpholin-2-yl)methoxy)phenyl)isoxazol-3-ylamino) pyrazine-2-carbonitrile] | 32 µM (≈ 12.6 µg/mL) | 104 µL/min/mg | 481 µL/min/mg | 202 µL/min/mg | 51% | 64% | 76.6 nM |
| N#Cc1cnc(Nc2cc(-c3ccccc3OC3CC(N)C3)on2)cn1 (stereo not shown) [Compound 1.20, 5-(5-(2-(3-aminocyclobutoxy)phenyl)isoxazol-3-ylamino) pyrazine-2-carbonitrile] | 29.4 µM (≈ 10.2 µg/mL) | 46 µL/min/mg | 86 µL/min/mg | 47 µL/min/mg | 60.2% | 91.9% | – |
| N#Cc1cnc(Nc2cc(-c3ccccc3OCCCN)on2)cn1 [Compound 1.5, 5-(5-(2-(3-aminopropoxy)phenyl)isoxazol-3-ylamino) pyrazine-2-carbonitrile] | 41.8 µM (≈ 14.1 µg/mL) | 70 µL/min/mg | 77 µL/min/mg | 78 µL/min/mg | 63% | 89% | 7.82 nM |
| N#Cc1cnc(Nc2cc(-c3cc4ccccc4cc3OCC3CCNC3)[nH]n2)cn1 (stereo not shown) [Compound 2.4, 5-(5-(3-(pyrrolidin-3-ylmethoxy)naphthalen-2-yl)-1H-pyrazol-3-ylamino) pyrazine-2-carbonitrile] | 7.77 µM (≈ 3.2 µg/mL) | 94 µL/min/mg | 142 µL/min/mg | 33 µL/min/mg | 70% | 97% | 2.34 nM |
| N#Cc1cnc(Nc2cc(-c3cc4ccccc4cc3OCC3CNCCO3)[nH]n2)cn1 (stereo not shown) [Compound 2.3, 5-(5-(3-(morpholin-2-ylmethoxy)naphthalen-2-yl)-1H-pyrazol-3-ylamino) pyrazine-2-carbonitrile] | 39.7 µM (≈ 17 µg/mL) | 39 µL/min/mg | 85 µL/min/mg | 26 µL/min/mg | 41% | 81% | 8.15 nM |
| N#Cc1cnc(Nc2cc(-c3ccccc3OCCCCN)on2)cn1 [Compound 1.6, 5-(5-(2-(4-aminobutoxy)phenyl)isoxazol-3-ylamino) pyrazine-2-carbonitrile] | 42.8 µM (≈ 15 µg/mL) | 118 µL/min/mg | 63 µL/min/mg | 63 µL/min/mg | 71% | 91% | 12.3 nM |
| N#Cc1cnc(Nc2cc(-c3cc4ccccc4cc3OCC3CNC3)[nH]n2)cn1 [Compound 2.2, 5-(5-(3-(azetidine-3-ylmethoxy)naphthalen-2-yl)-1H-pyrazol-3-ylamino) pyrazine-2-carbonitrile] | 41.8 µM (≈ 16.6 µg/mL) | 45 µL/min/mg | 153 µL/min/mg | 21 µL/min/mg | 80% | 96% | 4.14 nM |
| N#Cc1cnc(Nc2cc(-c3ccccc3OC3CC4(CNC4)C3)on2)cn1 [Compound 1.21, 5-(5-(2-(2-azaspiro[3.3]heptan-6-yloxy)phenyl)isoxazol-3-ylamino) pyrazine-2-carbonitrile] | 18.8 µM (≈ 7.04 µg/mL) | 37 µL/min/mg | 18 µL/min/mg | 20 µL/min/mg | 78.7% | 95.5% | – |
